# Laboratory results: paper PMC4980415 (Psychopharmacology, 2016)
# Where a name gives a salt, the structure may show the parent alone. Read-outs that look alike come from different tables or passages of the source.
# What was measured:
# PDE1 isoforms = assay: PDE1 potency and selectivity versus other PDE families; type: biochemical; settings: span of Table 1 values; read-out: Ki for inhibition of recombinant or bovine PDE1 enzymes
# [1] = system: Na^+ channel (site 2), sodium channel; assay: Off-target binding, General SEP II panel; settings: 10 μM ITI-214, mean of n = 2
# [2] = system: Ca^2+ channel (L, DHP site); assay: Off-target binding, General SEP II panel; settings: 10 μM ITI-214, mean of n = 2
# [3] = molecular target: T1, Potassium channel I[Kr], (hERG) (Homo sapiens, UniProt Q12809); assay: Off-target binding, General SEP II panel; settings: 10 μM ITI-214, mean of n = 2
# T1 construct: Caliper Life Sciences (contract screen)
# T1 sequence (Q12809 whole entry): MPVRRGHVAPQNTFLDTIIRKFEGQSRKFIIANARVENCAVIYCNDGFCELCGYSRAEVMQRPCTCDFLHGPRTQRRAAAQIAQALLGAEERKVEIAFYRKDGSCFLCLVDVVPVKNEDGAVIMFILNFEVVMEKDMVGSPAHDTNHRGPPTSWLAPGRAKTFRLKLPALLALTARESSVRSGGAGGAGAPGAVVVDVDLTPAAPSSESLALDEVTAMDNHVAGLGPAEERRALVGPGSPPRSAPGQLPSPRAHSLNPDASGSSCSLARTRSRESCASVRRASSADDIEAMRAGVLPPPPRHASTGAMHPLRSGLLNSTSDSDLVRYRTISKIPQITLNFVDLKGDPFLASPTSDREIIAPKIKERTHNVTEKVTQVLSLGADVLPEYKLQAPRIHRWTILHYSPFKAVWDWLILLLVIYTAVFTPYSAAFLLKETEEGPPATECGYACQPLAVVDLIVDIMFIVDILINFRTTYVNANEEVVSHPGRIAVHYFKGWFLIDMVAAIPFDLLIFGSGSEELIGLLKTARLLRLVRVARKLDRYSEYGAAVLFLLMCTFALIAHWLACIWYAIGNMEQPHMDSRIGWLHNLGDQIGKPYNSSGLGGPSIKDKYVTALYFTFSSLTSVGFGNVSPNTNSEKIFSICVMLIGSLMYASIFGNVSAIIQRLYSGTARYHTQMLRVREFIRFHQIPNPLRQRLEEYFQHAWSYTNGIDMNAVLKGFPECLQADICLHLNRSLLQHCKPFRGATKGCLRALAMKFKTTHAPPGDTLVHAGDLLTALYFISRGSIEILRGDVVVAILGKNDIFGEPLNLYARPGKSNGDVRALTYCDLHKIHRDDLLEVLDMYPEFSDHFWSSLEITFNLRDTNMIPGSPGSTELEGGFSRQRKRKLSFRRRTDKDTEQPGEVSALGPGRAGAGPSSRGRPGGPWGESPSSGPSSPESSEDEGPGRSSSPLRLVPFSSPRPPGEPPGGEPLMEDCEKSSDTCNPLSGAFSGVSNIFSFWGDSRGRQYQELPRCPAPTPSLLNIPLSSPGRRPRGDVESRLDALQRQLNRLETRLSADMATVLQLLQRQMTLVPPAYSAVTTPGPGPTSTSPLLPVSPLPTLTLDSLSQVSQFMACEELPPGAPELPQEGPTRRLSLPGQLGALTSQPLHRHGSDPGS
# [4] = system: Alpha 2 (non-selective), adrenergic; assay: Off-target binding, General SEP II panel; settings: 10 μM ITI-214, mean of n = 2
# H3 (h), histamine = molecular target: T2, H3 (h), histamine (Homo sapiens, UniProt Q9Y5N1); assay: Off-target binding, General SEP II panel; settings: 10 μM ITI-214, mean of n = 2
# T2 construct: Caliper Life Sciences (contract screen)
# T2 sequence (Q9Y5N1 whole entry): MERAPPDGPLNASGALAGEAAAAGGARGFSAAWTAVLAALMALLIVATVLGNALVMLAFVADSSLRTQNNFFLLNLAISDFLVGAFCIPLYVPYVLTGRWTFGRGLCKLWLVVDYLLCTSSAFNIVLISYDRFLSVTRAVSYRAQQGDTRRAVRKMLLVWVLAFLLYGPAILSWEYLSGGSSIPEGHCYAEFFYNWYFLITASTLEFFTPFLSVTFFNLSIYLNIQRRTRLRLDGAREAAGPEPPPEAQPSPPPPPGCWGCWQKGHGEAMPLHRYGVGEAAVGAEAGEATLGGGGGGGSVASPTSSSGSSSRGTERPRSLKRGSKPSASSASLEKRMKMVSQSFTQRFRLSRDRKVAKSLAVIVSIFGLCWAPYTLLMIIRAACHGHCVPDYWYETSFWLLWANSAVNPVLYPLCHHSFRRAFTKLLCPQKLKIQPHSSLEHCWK
# B2 (H), bradykinin = molecular target: T3, B2 (H), bradykinin (Homo sapiens, UniProt P30411); assay: Off-target binding, General SEP II panel; settings: 10 μM ITI-214, mean of n = 2
# T3 construct: Caliper Life Sciences (contract screen)
# T3 sequence (P30411 1-391): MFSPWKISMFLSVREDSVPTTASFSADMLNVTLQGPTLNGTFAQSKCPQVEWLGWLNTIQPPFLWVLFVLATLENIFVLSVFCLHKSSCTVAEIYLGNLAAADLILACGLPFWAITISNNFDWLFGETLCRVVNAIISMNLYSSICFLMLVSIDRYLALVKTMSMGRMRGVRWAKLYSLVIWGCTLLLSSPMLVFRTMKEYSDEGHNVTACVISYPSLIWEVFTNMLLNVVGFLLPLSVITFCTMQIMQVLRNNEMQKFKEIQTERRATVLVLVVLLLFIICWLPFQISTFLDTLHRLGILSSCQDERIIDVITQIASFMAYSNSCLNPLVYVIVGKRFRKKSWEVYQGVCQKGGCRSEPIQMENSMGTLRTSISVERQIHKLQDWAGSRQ
# [5] = system: 70 key receptor, enzyme, and ion channel proteins; assay: 70-target diversity panel (SEP II), whole panel; type: binding; settings: 10 μM, 70-target panel
# [6] = system: memory acquisition in male Wistar rats; assay: Novel object recognition (NOR): acquisition, drug 2 h before T1; type: in vivo, rat; settings: for Exploration time e1 (T1) / Exploration time e2 (T2): 2 h before T1, 24 h interval
# Experimental: (§1) The drug was administered, per os (po), by gavage to rats in a volume of 2 ml/kg body weight. Oral dosing solutions were prepared fresh daily. […] The pH of the dosing solution was adjusted to ~pH 5.5 by dropwise addition of 0.1 N NaOH in saline and volume adjusted by addition of saline in preparation for intraperitoneal (ip) dosing. […] Control treatments were always the vehicle solutions of the corresponding drugs.
# (§2) The object recognition test was performed as described elsewhere (Ennaceur and Delacour [1988]; Akkerman et al. 2014). The apparatus consisted of a circular arena, 83 cm in diameter. Half of the 40-cm-high wall was made of gray polyvinyl chloride, the other half of transparent polyvinyl chloride. The light intensity was equal in the different parts of the apparatus, as fluorescent red tubes provided a constant illumination of about 20 lx on the floor of the apparatus. Two objects were placed in a symmetrical position at about 10 cm from the gray wall. Four different sets of objects were used. The different objects were (1) a cone consisting of a gray polyvinyl chloride base (maximal diameter 18 cm) with a collar on top made of brass (total height 16 cm), (2) a standard 1 L transparent glass bottle (diameter 10 cm, height 22 cm) filled with water, (3) a large metal cube (10.0 × 5.0 × 7.5 cm) with two holes (diameter 1.9 cm), and (4) a large aluminum cube with a tapering top (13.0 × 8.0 × 8.0 cm). The objects used in this study were carefully selected to be “novelty neutral,” that is to say the rats have no innate preference for one over the other. In all cases, objects were of sufficient size and weight that rats could not move the objects.
# (§3) A testing session consisted of two trials. The duration of each trial was 3 min. During the first trial (T1), the apparatus contained two identical objects (samples). Rats were placed in the apparatus facing the wall at the middle of the front (transparent) segment. After the first exploration period, the rat was put back in its home cage. Subsequently, after a 24-h delay interval, the rat was put in the apparatus for the second trial (T2). The times spent in exploring each object during T1 and T2 were recorded manually using a personal computer.
# (§4) Exploration was defined as follows: directing the nose to the object at a distance of no more than 2 cm and/or touching the object with the nose. Sitting on the object was not considered as exploratory behavior. In order to avoid the presence of olfactory cues, the objects were always thoroughly cleaned with a 70 % ethanol solution before each trial. All combinations and locations of objects were used in a balanced manner to reduce potential biases due to preferences for particular locations or objects.
# (§5) During the first 2 weeks after animal arrival, the animals were handled daily. They were then adapted to the procedure over the period of 2 days by allowing them to explore the apparatus (without any objects) for 3 min twice each day. […] After this, the rats were assigned to treatment conditions in a balanced manner, thereby insuring an equal distribution of object combinations among the treatment conditions. […] In all experiments, a 24-h inter-trial interval was used. In all cases, the experimenter was unaware of the treatment conditions that were being tested.
# (§6) The basic measure recorded was the time spent by each rat exploring an object during T1 and T2. The time spent in exploring the two identical samples was represented by “a1” and “a2.” The time spent in T2 in exploring the sample and new object was represented by “a” and “b,” respectively. The following variables were calculated: e1 = a1 + a2, e2 = a + b, and d2 = (b − a) / e2. The e1 and e2 are measures of the total exploration time of both objects during T1 and T2, respectively. Differences in exploration times between treatment conditions were analyzed using a t test or one-way ANOVA. […]
# [7] = system: memory retrieval in male Wistar rats; assay: Novel object recognition (NOR): retrieval, drug 2 h before T2; type: in vivo, rat; settings: for Exploration time e1 (T1) / Exploration time e2 (T2): 2 h before T2, 24 h interval
# Experimental: as §1, §2, §3, §4, §5, §6
# [8] = Pharmacokinetics of ITI-214 in rats; type: in vivo; settings: rat, oral; for concentration at 2 h: 3 mg/kg
# From the text: Standard methods of tissue extraction were used.
smiles,measurement,setting,value
"CN1C(=O)c2c(nn(Cc3ccc(-c4cccc(F)n4)cc3)c2Nc2ccccc2)N2C1=N[C@@H]1CCC[C@@H]12 [ITI-214, (6aR,9aS)-2-(4-(6-fluoropyridin-2-yl)benzyl)-5-methyl-3-(phenylamino)-5,6a,7,8,9,9a-hexahydrocyclopenta-[4,5]imidazo[1,2-a]pyrazolo[4,3-e]pyrimidin-4-(2H)-one phosphate salt]",Ki,PDE1 isoforms,0.034 to 0.058 nM
same,% Binding,[1],88.44%
same,% Binding,[2],73.28%
same,% Binding,[3],35.09%
same,% Binding,[4],34.94%
same,% Binding,"H3 (h), histamine",32.54%
same,% Binding,"B2 (H), bradykinin",30.79%
same,number of panel targets showing >50 % binding,[5],4
same,Exploration time e1 (T1),[6]; 0.1 mg/kg po,28.38 (1.86) s
same,Exploration time e2 (T2),[6]; 0.1 mg/kg po,27.33 (1.48) s
same,Exploration time e1 (T1),[6]; 0.3 mg/kg po,27.55 (1.62) s
same,Exploration time e2 (T2),[6]; 0.3 mg/kg po,26.10 (1.69) s
same,Exploration time e1 (T1),[6]; 1 mg/kg po,27.97 (1.78) s
same,Exploration time e2 (T2),[6]; 1 mg/kg po,29.38 (1.38) s
same,Exploration time e1 (T1),[6]; 3 mg/kg po,27.28 (1.74) s
same,Exploration time e2 (T2),[6]; 3 mg/kg po,28.73 (1.62) s
same,Exploration time e1 (T1),[6]; 10 mg/kg po,26.21 (1.97) s
same,Exploration time e2 (T2),[6]; 10 mg/kg po,28.15 (1.38) s
same,effect on exploratory behavior during T1 or T2,[6]; 0.1–10 mg/kg po 2 h before T1,no effect on exploratory behavior
same,Exploration time e1 (T1),[7]; 0.1 mg/kg po,29.32 (1.82) s
same,Exploration time e2 (T2),[7]; 0.1 mg/kg po,28.78 (2.08) s
same,Exploration time e1 (T1),[7]; 0.3 mg/kg po,28.83 (1.84) s
same,Exploration time e2 (T2),[7]; 0.3 mg/kg po,29.31 (1.52) s
same,Exploration time e1 (T1),[7]; 1 mg/kg po,26.81 (1.72) s
same,Exploration time e2 (T2),[7]; 1 mg/kg po,33.64 (2.35) s
same,Exploration time e1 (T1),[7]; 3 mg/kg po,27.20 (1.90) s
same,Exploration time e2 (T2),[7]; 3 mg/kg po,28.60 (1.13) s
same,Exploration time e1 (T1),[7]; 10 mg/kg po,30.59 (1.98) s
same,Exploration time e2 (T2),[7]; 10 mg/kg po,30.52 (1.87) s
same,"full effective dose (d2 different from chance and from vehicle), retrieval",[7]; po 2 h before T2,1 mg/kg
same,effect on exploratory behavior during T1 or T2,[7]; retrieval and combined sub-threshold dose experiments,no effect on exploratory behavior
same,Tmax,[8]; brain,~1.5 h
same,concentration at 2 h,"[8]; brain, plasma levels associated with optimal effects on acquisition, read-out: brain free fraction estimated",0.12 nM
same,concentration at 2 h,"[8]; plasma, 2 h after drug administration, N = 12 rats, read-out: plasma level",30.1 ± 13.4 ng/mL
same,concentration at 2 h,"[8]; plasma, 2 h after drug administration, read-out: free plasma concentration",0.12 nM
